Assay results reported in the supplement of paper PMC10307832.

Key:
Assay in all cases: relative viability (nuclei count vs DMSO), 5 days (fraction); higher = more cells survive
XMD14-99 = compound: CN1CCN(CC1)C2=CC(=C(C=C2)NC3=NC(=C(S3)C(=O)C4=C(C=CC=C4Cl)Cl)N)OC [XMD14-99]
Method in brief: (§1)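 Hoechst staining, done together with fixation and permeabilisation, marked nuclei for 4× imaging and MetaXpress counting. This followed 5 days without medium change after lung cancer cell lines, kept overnight at 37 °C in 1536-well plates, were pinned with five library-drug doses (not always all listed) spaced by √10 on vehicle-anchored plates. Viability is the ratio of treated-well to vehicle-well nuclei, expressed as a median across plates. Plates passed only at control CV below 25% with at least one doubling.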

AZD1208 = compound: N[C@@H]1CCCN(c2c(/C=C3\SC(=O)NC3=O)cccc2-c2ccccc2)C1 [AZD1208]
Method in brief: as §1

XMD14-99 + Alpelisib = compound: CN1CCN(CC1)C2=CC(=C(C=C2)NC3=NC(=C(S3)C(=O)C4=C(C=CC=C4Cl)Cl)N)OC [XMD14-99] + Cc1nc(NC(=O)N2CCC[C@H]2C(N)=O)sc1-c1ccnc(C(C)(C)C(F)(F)F)c1 [Alpelisib] (partner 2 µM)
Method in brief: (§2)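 Lung cancer cell lines, seeded in 1536-well plates, were treated the following day by pin tool with a single drug or with five library-drug doses (not always all listed) in √10 steps on top of a fixed anchor-drug dose. Cells were fixed and nuclei stained in one step after 5 days, and nuclei were counted. Relative viability is the nuclei count for treated wells divided by that for vehicle wells, reported as medians of duplicate plates.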

AZD1208 + Pemetrexed = compound: N[C@@H]1CCCN(c2c(/C=C3\SC(=O)NC3=O)cccc2-c2ccccc2)C1 [AZD1208] + Nc1nc2[nH]cc(CCc3ccc(C(=O)N[C@@H](CCC(=O)O)C(=O)O)cc3)c2c(=O)[nH]1 [Pemetrexed] (partner 0.2 µM)
Method in brief: as §2

Row | Cell Line | relative viability (XMD14-99; 0.08 µM) | relative viability (XMD14-99; 0.8 µM) | relative viability (XMD14-99; 2.53 µM) | relative viability (XMD14-99; 8 µM) | relative viability (AZD1208; 0.08 µM) | relative viability (AZD1208; 0.253 µM) | relative viability (AZD1208; 0.8 µM) | relative viability (AZD1208; 2.53 µM) | relative viability (AZD1208; 8 µM) | relative viability (XMD14-99 + Alpelisib; first compound 0.08 µM) | relative viability (XMD14-99 + Alpelisib; first compound 0.8 µM) | relative viability (XMD14-99 + Alpelisib; first compound 2.53 µM) | relative viability (XMD14-99 + Alpelisib; first compound 8 µM) | relative viability (AZD1208 + Pemetrexed; first compound 0.08 µM) | relative viability (AZD1208 + Pemetrexed; first compound 0.253 µM) | relative viability (AZD1208 + Pemetrexed; first compound 0.8 µM) | relative viability (AZD1208 + Pemetrexed; first compound 2.53 µM) | relative viability (AZD1208 + Pemetrexed; first compound 8 µM)
1 | 201T | 0.993 | 0.986 | 0.99 | 0.804 | 1.05 | 0.99 | 0.952 | 0.933 | 0.939 | 0.998 | 1 | 0.841 | 0.952 | 0.346 | 0.339 | 0.305 | 0.269 | 0.327
2 | A549 | 0.955 | 0.97 | 0.898 | 0.726 | 0.957 | 0.952 | 0.868 | 0.934 | 0.786 | 0.749 | 0.759 | 0.641 | 0.576 |  |  |  |  | 
3 | A-427 | 1.05 | 0.939 | 0.866 | 0.643 | 1.1 | 0.972 | 0.895 | 0.962 | 0.747 | 1.09 | 1.08 | 0.954 | 0.9 | 0.971 | 1.05 | 0.847 | 1.03 | 0.911
4 | ABC-1 | 0.99 | 1.03 | 0.964 | 0.727 | 0.965 | 0.966 | 0.856 | 0.923 | 0.899 | 1.03 | 0.985 | 0.927 | 0.747 |  |  |  |  | 
5 | BEN | 0.969 | 0.988 | 0.961 | 0.801 | 0.954 | 0.84 | 0.629 | 0.709 | 0.537 | 0.94 | 0.936 | 0.854 | 0.801 | 0.877 | 0.525 | 0.568 | 0.612 | 0.558
6 | CAL-12T | 0.974 | 1.01 | 0.933 | 0.692 | 1.01 | 1.13 | 0.967 | 1.01 | 1.05 | 1.49 | 1.13 | 1.15 | 1.03 | 1.21 | 1.22 | 1.18 | 1.23 | 1.14
7 | COR-L23 | 1.04 | 0.891 | 0.946 | 0.693 | 0.969 | 1.12 | 0.965 | 0.99 | 1 | 0.768 | 0.749 | 0.515 | 0.301 | 0.188 | 0.193 | 0.195 | 0.206 | 0.194
8 | COR-L 105 | 0.852 | 1.14 | 0.706 | 0.718 | 0.837 | 0.909 | 0.929 | 0.712 | 0.821 | 0.851 | 0.849 | 0.823 | 0.806 | 1.1 | 0.982 | 1.01 | 1.2 | 1.08
9 | Calu-6 | 0.937 | 0.932 | 0.936 | 0.785 | 1 | 1.1 | 0.968 | 1.04 | 0.989 | 0.929 | 0.959 | 0.919 | 0.67 |  |  |  |  | 
10 | ChaGo-K-1 | 0.97 | 1.03 | 0.961 | 0.939 | 1.13 | 1.03 | 0.924 | 1.04 | 0.893 |  |  |  |  | 0.269 | 0.261 | 0.293 | 0.261 | 0.25
11 | EBC-1 | 0.962 | 0.924 | 0.842 | 0.637 | 1.02 | 1.12 | 0.93 | 0.967 | 0.957 | 0.819 | 0.783 | 0.653 | 0.561 |  |  |  |  | 
12 | IA-LM | 0.947 | 0.86 | 0.758 | 0.472 | 0.951 | 0.983 | 0.855 | 0.875 | 0.989 | 0.72 | 0.638 | 0.515 | 0.456 |  |  |  |  | 
13 | NCI-H522 | 0.891 | 1.01 | 1.07 | 1 | 0.975 | 0.922 | 0.816 | 0.816 | 0.769 |  |  |  |  | 0.975 | 0.986 | 0.979 | 0.824 | 0.828
14 | NCI-H727 | 1.03 | 0.815 | 0.846 | 0.567 | 0.891 | 0.886 | 0.777 | 0.755 | 0.827 | 0.553 | 0.513 | 0.447 | 0.407 |  |  |  |  | 
15 | NCI-H1299 | 0.996 | 0.98 | 0.941 | 0.859 | 1.01 | 1.06 | 1.03 | 1.06 | 1.06 | 1.05 | 1.04 | 1.05 | 0.884 |  |  |  |  | 
16 | NCI-H1648 | 0.845 | 0.713 | 0.734 | 0.454 | 0.981 | 1.25 | 0.921 | 1.04 | 1.05 |  |  |  |  | 0.626 | 0.629 | 0.814 | 0.891 | 1.07
17 | NCI-H1650 | 0.818 | 0.976 | 0.805 | 0.807 | 0.924 | 1.1 | 0.868 | 0.898 | 0.88 |  |  |  |  | 0.4 | 0.421 | 0.368 | 0.401 | 0.478
18 | NCI-H1703 | 0.89 | 0.912 | 0.91 | 0.761 | 0.846 | 0.881 | 0.846 | 0.718 | 0.654 | 0.338 | 0.36 | 0.487 | 0.334 |  |  |  |  | 
19 | NCI-H2342 | 0.957 | 0.932 | 1.02 | 0.761 | 1.07 | 0.944 | 0.84 | 0.945 | 0.765 |  |  |  |  | 0.869 | 0.749 | 0.699 | 0.738 | 0.568
20 | SW 900 | 0.918 | 0.976 | 0.753 | 0.66 | 0.837 | 0.989 | 0.822 | 1 | 0.799 |  |  |  |  | 0.475 | 0.443 | 0.454 | 0.472 | 0.469
